According to US10231958B2, “Methods and compositions for enhancing chemotherapy” (THE BOARD OF REGENTS OF THE UNIVERSITY OF TEXAS SYSTEM, priority 2015, dated 2019):

Experiments:
MDA-MB231 cells = assay: Extracellular matrix invasion assay (Boyden chamber); type: cell-based, human; settings: CM from sorafenib or sorafenib plus MMS/4-HC vs CM from MMS or 4-HC alone
Procedure: (§1) Quantification of MMP1 and MMP3 content in culture medium was assessed using RayBio-MMP3 and RayBio-MMP1 Elisa Kit (RayBiotech, Inc); IL8 was analyzed by Human IL-8 Elisa kit (Pierce Biotechnology). The levels of prostaglandin E2 (PGE2) were determined using the Prostaglandin E2 EIA Kit Monoclonal (Cayman Chemical Company). Culture media were diluted to fit within the standard curves. For conditioned media (CM) preparation for invasion and in vitro angiogenesis experiments, 12-well plated cells were treated with MMS (or MMS plus inhibitors) for 8 h in the presence of 10% FBS, twice washed with HBSS, and incubated with 700 μL drug/serum-free fresh medium for additional 12 h. Thereafter, the conditioned fresh medium was collected and directly used for migration and invasion experiments in order to reduce freezing associated loss of activity.
The invasion potential of breast cancer cells was estimated using the QCM™ 24-Well Cell Invasion Assay Fluorimetric (Millipore). Serum starved cells were trypsinized, trypsin-inhibited, centrifuged, resuspended to 5000 cells/μL, and 50 μL of this suspension (250,000 cells) was seeded on 8 μm pore size inserts coated with extracellular matrix in serum-free conditions. Afterwards, 200 μL conditioned (CM) or fresh medium without serum was added to top chambers. The bottom chamber consisted of 500 μL of DMEM supplemented with 10% FBS as chemoattractant. Cells were allowed to migrate for 24 h at 37° C. under 5% CO2. Invaded cells were detached from the bottom side of the insert, lysed and incubated with CyQuant GR fluorescent Dye for 15 min. Fluorescence was read at Ex/Em=480/520 nm. Percentage of invading cells was compared to cell number standard curves.

human endothelial cells = assay: In vitro angiogenesis (Angiophase kit, CD31); type: cell-based; settings: CM from sorafenib treatments
Procedure: as §1
The Angiophase kit (MBL Inc.) was used to assess the angiogenic potential of conditioned media (CM) from breast cancer cells or the direct effect of pharmaceutical inhibitors (free-drug system) on vessel-like structures formation in vitro. With this kit, human endothelial cells are co-cultured in a specially designed medium to form threadlike tubule structures. These gradually join up to form a network of anastomosing tubules, which resemble the capillary bed found in the CAM assay. Kit-provided cryopreserved co-culture of human endothelial cells were plated and kept for 96 h (proliferative phase) without treatments. Afterwards, the cells were maintained in the presence of conditioned medium from alkylating agent treated cells or control medium for a total of 14 days (angiogenic/vasculogenic phase). Medium was changed each 2 days. At the end of treatments, the cells were fixed and immune-stained for CD31 (PECAM-1), following by incubation with secondary antibody conjugate. ELISA was developed using the soluble substrate p-nitrophenyl-phosphate (p-NPP) whose product was colorimetrically read at 405 nm. After ELISA assays, the wells were washed with dH2O and tubule staining was performed by incubating CD31-stained tubules with the substrate BCIP/NBT, which form insoluble precipitates. Tubules were counted and photographed for qualitative monitoring.

MEFs [1] = assay: Metabolomics of GSH metabolites in MEFs; type: cell-based, mouse; settings: MMS 40 μg/mL
Procedure: (§2) The 2.4×10^6 Kc167 or 2×10^6 MEFs were seeded using complete growth medium on Day 0 in a T-175 cell culture flask and were allowed to grow for three days. After treatments with MMS (40 μg/mL), cells were harvested and centrifuged at 8 and 24 hours, and washed using ice-cold PBS. The cell numbers were adjusted to 90×10^6 (Kc167) or 24×10^6 (MEF) and provided as 100 μL of packed cell pellet for metabolic profiling. Metabolomic profiling and data analysis was provided through mView service performed by Metabolon Inc., Durham, N.C. Five biological replicates of each group were used for analysis at each time point. In addition, detailed changes in nucleotide pools were measured in a separate set of experiments. Nucleotide quantification and Metabolomics Pathway Enrichment Analyses were performed through MetaboAnalyst 2.0 (Xia et al., 2012, Nucleic Acids Res 40(Web Server issue), W127-33; Xia et al., 2009, Nucleic Acids Res 37(Web Server issue), W652-60).

MEFs [2] = assay: Gene expression microarray in MEFs; type: cell-based, mouse; settings: 24 h
Procedure: For microarray, 7.5×10^6 Kc167 Drosophila cells or 5×10^6 wild-type MEFs were seeded in T-75 cell culture flask in complete growth medium one day before treatments. On the following day, the medium was replenished with fresh growth medium or medium consisting of MMS at 40 μg/mL. Cells were harvested and pelleted at different times post treatment (0, 1, 8, 24 and 72 h), washed using ice cold phosphate buffered saline (PBS) and the RNA was extracted using the RNeasy kit protocol (Qiagen). RNA integrity was assessed by denaturing formaldehyde agarose gel electrophoresis or by microanalysis (Agilent Bioanalyzer, Santa Clara, Calif.). Microarray service was provided by Expression Analysis Inc., Durham, N.C. Affymetrix GeneChip Drosophila Genome 2.0 Array was used for the experiment performed using Kc167 cells, and Affymetrix GeneChip Mouse Genome 430A 2.0 Array was used for experiment performed using MEFs. The microarray service provided by Expression Analysis Inc., included group comparison between experimental control and MMS treatment and time course analysis based on permutation analysis of differential expression (PADE). For statistical comparison, each experiment was performed in quadruplicate.

Kc167 cells = assay: Metabolomics of GSH metabolites in fly cells; type: cell-based, D. melanogaster; settings: MMS 40 μg/mL
Procedure: as §2

[3] = test system: Intracellular ROS production; assay: Real-time ROS production (DCF assay); type: cell-based; settings: dose-independent, even at highly toxic MMS 80 μg/mL
Procedure: Intracellular ROS production was detected using DCFH-DA probe (Sigma) (Zanotto-Filho et al., 2010, Cancer Lett 288, 192-203). This reagent enters the cells and reacts predominantly with highly oxidizing species of ROS, such as hydroxyl radicals, hydroperoxides, and peroxynitrite, thus producing the fluorophore DCF. Briefly, cells were seeded in black-edge clear bottom 96-well plates. After reaching 70% confluence, medium was changed and cells were incubated with 20 μM DCFH-DA dissolved in medium containing 0.5% FBS. After 1 h pre-incubation to allow DCFH-DA uptake, treatments were added to its respective final concentrations and DCF fluorescence was monitored at 0.5, 1, 3, 8, 12, 16 and 24 h in a fluorescence reader (Ex/Em=485/532 nm). Hydrogen peroxide was used as a positive control and N-acetylcysteine (NAC), GSH-ethyl-ester (GSH-E) and Trolox were used as antioxidant standards. As a control, at the end of 24 h, cell viability was assessed and compared to wells in the absence of DCFH-DA.

SMILES | invasion with CM from treated cells (MDA-MB231 cells) | angiogenesis with CM from treated cells (human endothelial cells) | increase in methyl-GSH (MEFs [1]) [fold] | up-regulation of CAT expression (MEFs [2]) [fold] | increase in methyl-GSH (Kc167 cells) [fold] | increase in ROS [3] [fold]
CNC(=O)c1cc(Oc2ccc(NC(=O)Nc3ccc(Cl)c(C(F)(F)F)c3)cc2)ccn1 [sorafenib, 4-[4-[[4-chloro-3-(trifluoromethyl)phenyl]carbamoylamino]phenoxy]-N-methyl-pyridine-2-carboxamide] | unable to invade Boyden Chambers | inhibition of angiogenesis | – | – | – | –
COS(C)(=O)=O [MMS, methyl-methanesulfonate] | – | – | 100 | 2.7 | 300 | 1.5
